Data reported in patent US10774082B2, “Quinazoline compound” (Astellas Pharma Inc., priority 2017, dated 2020).

Assays:
[1] = molecular target: T1, KRAS G12C/SOS/c-Raf complex (Homo sapiens, UniProt P01116, G12C); experiment: KRAS G12C/SOS/c-Raf complex formation inhibitory action (TR-FRET); format: biochemical; settings: one hour at room temperature, read-out: IC50 (KRAS G12C/SOS/c-Raf complex formation inhibition)
T1 construct: Biotinylated AviTag-KRAS G12C (amino acid region 1-185, GDP)
Protocol: Evaluation of KRAS G12C/SOS/c-Raf Complex Formation Inhibitory Action
Human Recombinant KRAS G12C, SOS, and c-Raf protein were used, and with respect to the complex formation of these proteins, an inhibitory action of the test compound was examined through a time-resolved fluorescence resonance energy transfer (TR-FRET) method.
Biotinylated AviTag-KRAS G12C (amino acid region 1-185, GDP) (2.5 μL; 400 nM) dissolved in assay buffer (50 mM HEPES, 150 mM NaCl, 5 mM MgCl2, 0.05% Tween 20, pH 7.4) and test compound were added in a volume of 2.5 μL from 4,000 nM to 4 nM were added to 384 well plate (Corning Inc). Son of Sevenless (SOS) (amino acid region 564-1049, 2.5 μL; 1.3 μM) and c-Raf (amino acid region 51-131) GST containing GTP (Sigma-Aldrich Co. LLC) (2.5 μL; 130 nM and 4 μM of each) were added to the above mixture, and the resultant was left to stand for one hour at room temperature. Thereafter, a mixed solution (10 μL) of LANCE Ulight-anti-GST (120 nM, PerkinElmer. Co., Ltd) and LANCE Eu-W1024 labeled Streptoavidin (100 ng/mL, PerkinElmer. Co., Ltd) was added, and a fluorescence intensity on the condition of wavelength of 620 nm and 665 nm was measured by using EnVision 2103 Multilabel Reader (PerkinElmer Co., Ltd.) under the condition of excitation wavelength of 337 nm. […] In Tables, Ex represents Example numbers described later. In addition, in Tables, Compound C represents a test compound of Example I-59 disclosed in Pamphlet of International Publication No. WO 2016/164675, and the structures of Reference Example 1 and Reference Example 2 are indicated in Table 168 described below (the same shall apply hereinafter).

[2] = tested on: ERK phosphorylation (Thr 202/Tyr 204) in NCI-H1373 cells; experiment: ERK phosphorylation inhibitory action in NCI-H1373 (Cell ELISA); format: cell-based, Human; settings: Homo sapiens, NCI-H1373, 2 h, NCI-H1373 cells, cultured for 2 hours, 100% = 1 μM Trametinib; read-out: IC50 (ERK phosphorylation inhibition)
Protocol: Evaluation of ERK Phosphorylation Inhibitory Action with Respect to Human KRAS G12C Mutation Positive Non-Small Cell Lung Cancer Strain NCI-H1373
The ERK phosphorylation inhibitory action by the test compound was evaluated by measuring phosphorylation of 202th threonine (Thr 202) and 204th tyrosine (Tyr 204) of ERK on the downstream of the KRAS signal by Cell ELISA.
NCI-H1373 cells (ATCC, CRL-5866) were seeded in 384 well plates (Greiner bio-one) at 36 μL/well each so as to be 2×10^4 cell per well. Cell culture was performed under the conditions of temperature of 37° C. in the presence of 5% CO2 by using RPMI 1640 medium (Sigma-Aldrich Co. LLC) containing 10% fetal bovine serum (GE Life Sciences).
The next day, the test compounds (six points in a range of final concentration 1,000 nM to 0.3 nM), final concentration 1 μM of Trametinib (GlaxoSmithKline Inc.; MEK inhibitor) as a positive control, and DMSO which is a solvent of the test compound as a negative control were diluted 100-fold with fresh medium, 4 μL each was added to each well, and then cultured for 2 hours. Immediately after culturing, 30 μL of 30% glyoxal solution (Wako: 40% glyoxal diluted with Phosphate Buffered Saline (PBS; Wako)) was added to each well, and the cells were left to stand at room temperature for one hour to be fixed. Thereafter, the supernatant was removed by centrifuging the plate (110×g for 7 seconds, unless otherwise stated below under the same conditions), and 20 μL of PBS containing 0.1% Triton X-100 (Amersham Biosciences Corp.) was added to each well. After being left to stand at room temperature for 10 minutes, the supernatant was removed by centrifugation, and the same operation was repeated. Next, 20 μL of PBS containing 0.5% SDS (Invitrogen) was added to each well, and the mixture was left to stand at room temperature for 30 minutes, and then centrifuged to remove the supernatant. Subsequently, 20 μL of a blocking solution (ODYSSEY Blocking Buffer; LI-COR Biosciences) was added to each well, and left to stand at room temperature for one hour. The supernatant was removed by centrifugation, and 10 μL of a blocking solution prepared by diluting ERK (Thr 202/Tyr 204) of a phosphorylation antibody (Cell Signaling Technology, Inc.) as a primary antibody to be ½, 500 amount with respect to a stock solution was added to each well and was left to stand at 4° C. for overnight.
The next day, a reaction liquid is removed by centrifuging the plate, 20 μL of 0.05% Tween-20-containing PBS (Thermo Scientific; 20×PBS Tween-20 diluted 20-fold with ion exchanged water) was added to each well, and each well was washed by removing the supernatant by centrifugation. Washing was performed three times in total. After washing, 10 μL of a blocking solution prepared by diluting IRDye 800CW Goat anti-Rabbit IgG (LI-COR Biosciences) as a secondary antibody to be 1/1,000 amount with respect to a stock solution was added to each well and was left to stand at room temperature for one hour. The reaction liquid was removed by centrifuging the plate, and each well was washed three times with 0.05% Tween-20-containing PBS in the same manner as after primary antibody reaction. The centrifugation after the third wash was 171×g for 17 seconds. After removal of the cleaning solution, the plate was left to air dry at room temperature for three hours or more and the fluorescent signal at 800 nm was measured by Aerius (LI-COR Biosciences).
When a signal value at the time of adding DMSO was set as 0% inhibition, and a signal value at the time of adding 1 μM of Trametinib was set as 100% inhibition, a value of 50% inhibition (IC50) was calculated through Sigmoid-Emax model nonlinear regression analysis.

[3] = tested on: NCI-H1373 cells; experiment: Anchorage-independent cell proliferation inhibitory action, NCI-H1373 spheroid three-dimensional culture; format: cell-based, Human; settings: Homo sapiens, NCI-H1373, 144 h, NCI-H1373 spheroid, six days, CellTiter Glo; read-out: IC50 (anchorage-independent cell proliferation inhibition)
Protocol: Evaluation of Anchorage-Independent Cell Proliferation Inhibitory Action with Respect to Human KRAS G12C Mutation Positive Non-Small Cell Lung Cancer Strain NCI-H1373
An anchorage-independent cell proliferation inhibitory action by the test compound was evaluated by a spheroid three-dimensional culture.
NCI-H1373 cells were seeded in cell low adsorption U bottom 384 well plates (Prime Surface: Sumitomo Bakelite Co., Ltd.) at 36 μL/well each so as to be 5×10^2 cell per well. The cell culture was performed under the same conditions as Test example 2.
The next day, the test compounds (six points in a range of final concentration 1,000 nM to 0.3 nM) and DMSO which is a solvent of the test compound as a negative control were diluted 100-fold with fresh medium, 4 μL each was added to each well. After culturing at 37° C. in the presence of 5% CO2 for six days, 20 μL of CellTiter Glo or to CellTiter Glo 2.0 (Promega Corporation) was added to each well. After stirring for one hour at room temperature using a plate mixer (FINEPCR), an emission signal was measured with ARVO X3 (PerkinElmer Co., Ltd.).
When a signal value in a DMSO treatment was set as 0% inhibition, and a signal value in cell-free medium only was set as 100% inhibition, a value of 50% inhibition (IC50) was calculated through Sigmoid-Emax model nonlinear regression analysis.

T1 sequence (P01116 1-185 isoform P01116-2 G12C, one chain of several): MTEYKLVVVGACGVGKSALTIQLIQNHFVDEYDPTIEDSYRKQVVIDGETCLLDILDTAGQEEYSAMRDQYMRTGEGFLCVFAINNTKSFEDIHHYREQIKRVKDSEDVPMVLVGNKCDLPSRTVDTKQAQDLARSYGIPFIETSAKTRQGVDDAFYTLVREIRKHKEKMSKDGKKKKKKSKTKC

IC50 [1] | IC50 [2] | IC50 [3] | SMILES
43 nM | 11 nM | 18 nM | C=CC(=O)N1CC2(CCN(c3nc(OC4CCN(CCN(CC)CC)CC4)nc4c(OCC(F)(F)F)c(-c5c(C)ccc6[nH]ncc56)c(C=C)cc34)CC2)C1 [Example 67]
45 nM | 12 nM | 16 nM | C=CC(=O)N1CC2(CCN(c3nc(NC4CCN(C)CC4)nc4c(OCC(F)(F)F)c(-c5c(C)ccc6[nH]ncc56)c(C=C)cc34)CC2)C1 [Example 68]
50 nM | 12 nM | 17 nM | C=CC(=O)N1CC2(CCN(c3nc(OC4CCCN(C)CC4)nc4c(OCC(F)(F)F)c(-c5c(C)ccc6[nH]ncc56)c(C=C)cc34)CC2)C1 (stereo not drawn) [Example 69]
79 nM | 18 nM | 71 nM | C=CC(=O)N1CC2(CCN(c3nc(OC4CCN(C(=O)N(C)C)CC4)nc4c(OCC(F)(F)F)c(-c5c(C)ccc6[nH]ncc56)c(C=C)cc34)CC2)C1 [Example 70]
40 nM | 14 nM | 10 nM | C=CC(=O)N1CC2(CCN(c3nc(OCCCN(C)C)nc4c(OCC(F)(F)F)c(-c5c(C)ccc6[nH]ncc56)c(C=C)cc34)CC2)C1 [Example 71]
41 nM | 14 nM | 24 nM | C=CC(=O)N1CC2(CCN(c3nc(OC4CCN(C5CCN(C)CC5)CC4)nc4c(OCC(F)(F)F)c(-c5c(C)ccc6[nH]ncc56)c(C=C)cc34)CC2)C1 [Example 72]
44 nM | 15 nM | 28 nM | C=CC(=O)N1CC2(CCN(c3nc(OC4CCN(CCN5CCCC5)CC4)nc4c(OCC(F)(F)F)c(-c5c(C)ccc6[nH]ncc56)c(C=C)cc34)CC2)C1 [Example 73]
50 nM | 15 nM | 21 nM | C=CC(=O)N1CC2(CCN(c3nc(OC4CCN(C)CC4)nc4c(OCC(C)C)c(-c5c(C)ccc6[nH]ncc56)c(C=C)cc34)CC2)C1 [Example 74]
51 nM | 15 nM | 43 nM | C=CC(=O)N1CC2(CCN(c3nc(OC4CCS(=O)(=O)CC4)nc4c(OCC(F)(F)F)c(-c5c(C)ccc6[nH]ncc56)c(C=C)cc34)CC2)C1 [Example 75]
43 nM | 15 nM | 25 nM | C=CC(=O)N1CC2(CCN(c3nc(N4CCCN(C)CC4)nc4c(OCC(F)(F)F)c(-c5c(C)ccc6[nH]ncc56)c(C=C)cc34)CC2)C1 [Example 76]
56 nM | 16 nM | 32 nM | C=CC(=O)N1CC2(CCN(c3nc(OC4CCN(CCOC)CC4)nc4c(OCC(F)(F)F)c(-c5c(C)ccc6[nH]nc(Cl)c56)c(C=C)cc34)CC2)C1 [Example 77]
47 nM | 16 nM | 24 nM | C=CC(=O)N1CC2(CCN(c3nc(OC4CCN(CCOC)CC4)nc4c(OCC(F)(F)F)c(-c5c(C)cc(F)c6[nH]ncc56)c(C=C)cc34)CC2)C1 [Example 78]
57 nM | 16 nM | 43 nM | C=CC(=O)N1CC2(CCN(c3nc(OC4CCN(CCOC)CC4)nc4c(OCC(F)(F)C(F)(F)F)c(-c5c(C)ccc6[nH]ncc56)c(C=C)cc34)CC2)C1 [Example 79]
166 nM | 16 nM | 75 nM | C=CC(=O)N1CC2(CCN(c3nc(OC4CCN(CC(F)(F)F)CC4)nc4c(OCC(F)(F)F)c(-c5c(C)ccc6[nH]ncc56)c(C=C)cc34)CC2)C1 [Example 80]
41 nM | 16 nM | 26 nM | C=CC(=O)N1CC2(CCN(c3nc(OC4CCN(CCS(C)(=O)=O)CC4)nc4c(OCC(F)(F)F)c(-c5c(C)ccc6[nH]ncc56)c(C=C)cc34)CC2)C1 [Example 81]
108 nM | 16 nM | 51 nM | C=CC(=O)N1CC2(CCN(c3nc(OC4CCN(CCCOC(F)(F)F)CC4)nc4c(OCC(F)(F)F)c(-c5c(C)ccc6[nH]ncc56)c(C=C)cc34)CC2)C1 [Example 83]
56 nM | 17 nM | 27 nM | C=CC(=O)N1CC2(CCN(c3nc(OCCCN4CCOCC4)nc4c(OCC)c(-c5c(C)ccc6[nH]ncc56)c(C=C)cc34)CC2)C1 [Example 85]
